22 molecules from patent publication US20210221785A1, “AMINO-PYRIMIDONYL DERIVATIVES, A PROCESS FOR THEIR PREPARATION AND PHARMACEUTICAL COMPOSITIONS CONTAINING THEM” (LES LABORATOIRES SERVIER, priority 2018, published 2021) can be followed below.

In the assay the target is T1, His-His-USP7 (aa208-560, |C315A|) (Homo sapiens, UniProt Q93009, C315A).
T1 construct: His-His-USP7 (aa208-560, |C315A|); His-His (N)
T1 sequence (Q93009 208-560 C315A): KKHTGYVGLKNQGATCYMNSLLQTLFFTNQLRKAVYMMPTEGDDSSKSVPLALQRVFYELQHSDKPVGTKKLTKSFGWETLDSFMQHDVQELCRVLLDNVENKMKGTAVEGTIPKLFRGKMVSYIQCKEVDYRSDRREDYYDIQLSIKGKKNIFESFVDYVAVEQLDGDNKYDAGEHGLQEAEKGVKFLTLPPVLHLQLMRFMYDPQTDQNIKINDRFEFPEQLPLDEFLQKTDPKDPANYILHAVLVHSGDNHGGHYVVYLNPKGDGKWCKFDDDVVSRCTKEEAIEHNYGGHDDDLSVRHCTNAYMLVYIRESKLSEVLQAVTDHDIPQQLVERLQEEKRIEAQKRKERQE
In words: Evaluation of the inhibition of USP7 by the Fluorescence Intensity (FLINT) readings. The note with it: 0.25 nM His-His-USP7, compound incubated 60 minutes at 30° C., 500 nM Ubiquitin-Rhodamine-110 substrate; 50% reduction in kinetic rate. The assay is classed as biochemical. As for the experimental part: USP7 activity was measured using Rhodamine-110 c-terminal labelled Ubiquitin as a substrate (UbiQ Bio). Incubation with USP7 results in the release of Rhodamine-110 leading to an increase in fluorescence which can be used in the continuous measurement of USP7 activity.
The USP7 reactions were performed in a 50 μL volume, in 384 well black solid low binding plates (Corning #3575). The reaction buffer consisted of 100 mM Bicine pH 8.0, 0.01% TritonX100, 1 mM TCEP, and 10% DMSO.
0.25 nM His-His-USP7 (aa208-560, |C315A|) was incubated with compound (final concentration 10% DMSO) for 60 minutes at 30° C. The reaction was then initiated by the addition of 500 nM Ubiquitin-Rhodamme-110 substrate and the plate read every 3 minutes for 21 minutes to measure the release of Rhodamine-110. Fluorescence Intensity (FLINT) readings were measured using a […] plate reader (Ex.485 nm, Em.535 nm).
The inhibition of increasing doses of compound was expressed as a percentage reduction in kinetic rate compared to the kinetic rates established between ‘DMSO only’ and ‘total inhibition’ controls (no USP7). The inhibitory concentrations that gave a 50% reduction in kinetic rate (IC50) were determined, from 11-point dose response cures, in XL-Fit using a 4-Parameter Logistic Model 205 (Sigmoidal Dose-Response Model).
As for `COc1cccc(Oc2ncn(CC3(O)CCN(C(=O)[C@@H]4CCC(F)(F)C[C@H]4c4ccccc4)CC3)c(=O)c2N)c1` [Example 4, 5-amino-3-({1-[(1R,2R)-4,4-difluoro-2-phenylcyclohexane-1-carbonyl]-4-hydroxypiperidin-4-yl}methyl)-6-(3-methoxyphenoxy)pyrimidin-4(3H)-one], the IC50 was 93.8 nM.

`NC(=O)c1ccc(Oc2ncn(CC3(O)CCN(C(=O)[C@@H]4CCC(F)(F)C[C@H]4c4ccccc4)CC3)c(=O)c2N)cc1Cl` [Example 80, 4-{[5-amino-1-({1-[(1R,2R)-4,4-difluoro-2-phenylcyclohexane-1-carbonyl]-4-hydroxypiperidin-4-yl}methyl)-6-oxo-1,6-dihydropyrimidin-4-yl]oxy}-2-chlorobentamide] registered an IC50 of 375 nM.

In turn, `Nc1c(Oc2ccc(CC(F)(F)F)cc2)ncn(CC2(O)CCN(C(=O)[C@@H]3CCC(F)(F)C[C@H]3c3ccccc3)CC2)c1=O` [Example 37, 5-amino-3-({1-[(1R,2R)-4,4-difluoro-2-phenylcyclohexane-1-carbonyl]-4-hydroxypiperidin-4-yl}methyl)-6-[4-(2,2,2-trifluoroethyl)phenoxyl]pyrimidin-4(3H)-one] had a concentration for half-maximal inhibition (IC50) of 158 nM.

Turning to `CC1(F)CC[C@@H](C(=O)N2CCC(O)(Cn3cnc(-c4ccc(F)cc4)c(N)c3=O)CC2)[C@H](c2ccccc2)C1` (relative stereo) [Example 127, rel-5-amino-3-[(1-{[(1R,2R)-4-fluoro-4-methyl-2-phenylcyclohexyl]carbonyl}-4-hydroxypiperidin-4-yl)methyl]-6-(4-fluorophenyl)pyrimidin-4-one], the IC50 is 46.6 nM.

In turn, `Nc1c(Oc2ccc(F)cc2)ncn(CC2(O)CCN(C(=O)[C@@H]3CC[C@](O)(c4ccccc4)C[C@H]3c3ccccc3)CC2)c1=O` (relative stereo) [Example 102, rel-5-amino-6-(4-fluorophenoxy)-3-[(4-hydroxy-1-{[(1R,2R,4R)-4-hydroxy-2,4-diphenylcyclohexyl]carbonyl}piperidin-4-yl)methyl]pyrimidin-4-one] yielded an IC50 of 461 nM.

`Nc1c(Oc2ccc(CCC3CCNCC3)cc2)ncn(CC2(O)CCN(C(=O)[C@@H]3CCC(F)(F)C[C@H]3c3ccccc3)CC2)c1=O` [Example 112, 5-amino-3-([1-[(1R,2R)-4,4-difluoro-2-phenylcyclohexane-1-carbonyl]-4-hydroxypiperidin-4-yl]methyl)-6-[4-[2-(piperidin-4-yl)ethyl]phenoxy]pyrimidin-4(3H)-one] had an IC50 of 70.8 nM.

`Nc1c(Oc2cnc3cc[nH]c3c2)ncn(CC2(O)CCN(C(=O)[C@@H]3CCC(F)(F)C[C@H]3c3ccccc3)CC2)c1=O` [Example 106, 5-amino-3-([1-[(1R,2R)-4,4-difluoro-2-phenylcyclohexane-1-carbonyl]-4-hydroxypiperidin-4-yl]methyl)-6-[(1H-pyrrolo[3,2-b]pyridin-6-yl)oxy]pyrimidin-4(3H)-one] displayed an IC50 of 152 nM. This IC50 lies about 2.1-fold higher than the previous one.

`Nc1c(Oc2ccc(F)cc2)ncn(CC2(O)CCN(C(=O)[C@@H]3CC[C@@](O)(Cc4ccc(F)cc4)C[C@H]3c3ccccc3)CC2)c1=O` (relative stereo) [Example 100, rel-5-amino-6-(4-fluorophenoxy)-3-[(1-{[(1R,2R,4S)-4-[(4-fluorophenyl)methyl]-4-hydroxy-2-phenylcyclohexyl]carbonyl}-4-hydroxypiperidin-4-yl)methyl]pyrimidin-4-one]: the IC50 was 244 nM.

In the case of `Nc1c(Oc2ccc(CCC3CCCCN3)cc2)ncn(CC2(O)CCN(C(=O)[C@@H]3CCC(F)(F)C[C@H]3c3ccccc3)CC2)c1=O` (stereo partly drawn) [Example 114, 5-amino-3-({1-[(1R,2R)-4,4-difluoro-2-phenylcyclohexane-1-carbonyl]-4-hydroxypiperidin-4-yl}methyl)-6-{4-[2-(piperidin-2-yl)ethyl]phenoxy}pyrimidin-4(3H)-one], the concentration for half-maximal inhibition (IC50) was found to be 48.7 nM.

Molecule `Nc1c(Oc2ccc(CCCO)cc2)ncn(CC2(O)CCN(C(=O)[C@@H]3CCC(F)(F)C[C@H]3c3ccccc3)CC2)c1=O` [Example 29, 5-amino-3-({1-[(1R,2R)-4,4-difluoro-2-phenylcyclohexane-1-carbonyl]-4-hydroxypiperidin-4-yl}methyl)-6-[4-(3-hydroxypropyl)phenoxy]pyrimidin-4(3H)-one] gave an IC50 of 175 nM.

In the case of `Nc1c(Oc2ccc(F)cc2)ncn(C[C@]2(O)CCN(C(=O)[C@@H]3CCC(F)(F)C[C@H]3c3ccccc3)CC2(F)F)c1=O` [Example 79, 5-amino-3-({(4R)-1-[(1R,2R)-4,4-difluoro-2-phenylcyclohexane-1-carbonyl]-3,3-difluoro-4-hydroxypiperidin-4-yl}methyl)-6-(4-fluorophenoxy)pyrimidin-4(3H)-one], the half-inhibitory concentration (IC50) was determined as 228 nM.

The molecule `CNCc1ccc(Oc2ncn(CC3(O)CCN(C(=O)[C@@H]4CCC(F)(F)C[C@H]4c4ccccc4)CC3)c(=O)c2N)cc1` [Example 60, 5-amino-3-({1-((1R,2R)-4,4-difluoro-2-phenylcyclohexane-1-carbony]-4-hydroxypiperidin-4-yl}methyl)-6-{4-[(methylamino)methyl]phenoxy}pyrimidin-4(3H)-one] gave an IC50 of 6.5 nM.

In the case of `Nc1c(Oc2ccc(F)cc2)ncn(CC2(O)CCN(C(=O)[C@@H]3CC[C@@](O)(c4ccccc4)C[C@H]3c3ccccc3)CC2)c1=O` (relative stereo) [Example 103, rel-5-amino-6-(4-fluorophenoxy)-3-[(4-hydroxy-1-{[(1R,2R,4S)-4-hydroxy-2,4-diphenylcyclohexyl]carbonyl}piperidin-4-yl)methyl]pyrimidin-4-one], half-maximal inhibition (IC50) was put at 312 nM. This IC50 is about 48-fold higher than that of the molecule before.

Turning to `Nc1c(Oc2cccc(S(F)(F)(F)(F)F)c2)ncn(CC2(O)CCN(C(=O)[C@@H]3CCC(F)(F)C[C@H]3c3ccccc3)CC2)c1=O` [Example 21, 5-amino-3-({1-[(1R,2R)-4,4-difluoro-2-phenylcyclohexane-1-carbonyl]-4-hydroxypiperidin-4-yl}methyl)-6-[3-(pentafluoro-λ^6-sulfanyl)phenoxy]pyrimidin-4(3H)-one], the 50% inhibitory concentration (IC50) was found to be 716 nM.

Turning to `Nc1c(Oc2ccc(F)cc2)ncn(CC2(O)CCN(C(=O)[C@@H]3CC[C@@](F)(C#Cc4cc(F)ccn4)C[C@H]3c3ccccc3)CC2)c1=O` [Example 158, 5-amino-3-({1-[(1R,2R,4S)-4-fluoro-4-[2-(4-fluoropyridin-2-yl)ethynyl]-2-phenylcyclohexanecarbonyl]-4-hydroxypiperidin-4-yl}methyl)-6-(4-fluorophenoxy)-3,4-dihydropyrimidin-4-one], the IC50 was 67.7 nM.

`Nc1c(Oc2cccc(C(=O)O)c2)ncn(CC2(O)CCN(C(=O)[C@@H]3CCC(F)(F)C[C@H]3c3ccccc3)CC2)c1=O` [Example 63] registered an IC50 of 1620 nM. This IC50 lies about 24-fold higher than the previous one.

For the molecule `N#Cc1cccc(Oc2ncn(CC3(O)CCN(C(=O)[C@@H]4CCC(F)(F)C[C@H]4c4ccccc4)CC3)c(=O)c2N)c1` [Example 25, 3-{[5-amino-1-({1-[(1R,2R)-4,4-difluoro-2-phenylcyclohexane-1-carbonyl]-4-hydroxypiperidin-4-yl}methyl)-6-oxo-1,6-dihydropyrimidin-4-yl]oxy}benzonitrile], inhibition was half-maximal at 203 nM (IC50).

Take `Nc1c(Oc2ccccc2F)ncn(CC2(O)CCN(C(=O)[C@@H]3CCC(F)(F)C[C@H]3c3ccccc3)CC2)c1=O` [Example 2, 5-amino-3-({1-[(1R,2R)-4,4-difluoro-2-phenylcyclohexane-1-carbonyl]-4-hydroxypiperidin-4-yl}methyl)-6-(2-fluorophenoxy)pyrimidin-4(3H)-one]: 304 nM corresponded to half-maximal inhibition (IC50).

`NCc1ccc(Oc2ncn(CC3(O)CCN(C(=O)[C@@H]4CCC(F)(F)C[C@H]4c4ccccc4)CC3)c(=O)c2N)c(Cl)c1` [Example 69, 5-amino-6-[4-(aminomethyl)-2-chlorophenoxyl]-3-({1-[(1R,2R)-4,4-difluoro-2-phenylcyclohexane-1-carbonyl]-4-hydroxypiperidin04-yl}methyl)pyrimidin-4(3H)-one] yielded an IC50 of 119 nM.

`Nc1c(Oc2cccc(OC(F)(F)F)c2)ncn(CC2(O)CCN(C(=O)[C@@H]3CCC(F)(F)C[C@H]3c3ccccc3)CC2)c1=O` [Example 18, 5-amino-3-({1-[(1R,2R)-4,4-difluoro-2-phenylcyclohexane-1-carbonyl]-4-hydroxypiperidin-4-yl}methyl)-6-[3-(trifluoromethoxy)phenoxy]pyrimidin-4(3H)-one] registered an IC50 of 247 nM.

Regarding `COc1cc(OC)cc(Oc2ncn(CC3(O)CCN(C(=O)[C@@H]4CCC(F)(F)C[C@H]4c4ccccc4)CC3)c(=O)c2N)c1` [Example 7, 5-amino-3-({1-[(1R,2R)-4,4-difluoro-2-phenylcyclohexane-1-carbonyl]-4-hydroxypiperidin-4-yl}methyl)-6-(3,5-dimethoxyphenoxy)pyrimidin-4(3H)-one], 181 nM corresponded to half-maximal inhibition (IC50). The IC50 values of the last two molecules are within 1.5-fold of each other.

Take `Nc1c(Oc2cccc(C(F)(F)F)c2)ncn(CC2(O)CCN(C(=O)[C@@H]3CCC(F)(F)C[C@H]3c3ccccc3)CC2)c1=O` [Example 22, 5-amino-3-({1-[(1R,2R)-4,4-difluoro-2-phenylcyclohexane-1-carbonyl]-4-hydroxypiperidin-4-yl}methyl)-6-[3-(trifluoromethyl)phenoxy]pyrimidin-4(3H)-one]: the half-inhibitory concentration (IC50) was 264 nM.
